Read-outs that look alike come from different tables or passages of the source.
Assays:
[1] = molecular target: T1, cytoplasmic domain (amino acids 1058-1620) of wild-type human ALK (Homo sapiens, UniProt Q9UM73); assay: ALK inhibition in enzyme assay (Lance TR-FRET); assay type: biochemical
T1 construct: cytoplasmic domain (amino acids 1058-1620) of wild-type human ALK; GST (N); made in house; host or cells: SF9 cells

FLT1 = FLT1 (Homo sapiens, UniProt P17948); assay: Off-chip mobility shift kinase assay, FLT1; assay type: biochemical; settings: CSKtide 1000 nM, ATP 150 μM, Mg 5 mM, reaction time 5 hours
RET(Y791F) = RET(Y791F) (Homo sapiens, UniProt P07949, Y791F); assay: Off-chip mobility shift kinase assay, RET [Y791F]; assay type: biochemical; settings: CSKtide 1000 nM, ATP 25 μM, Mg 5 mM
TRKC = TRKC (Homo sapiens, UniProt Q16288); assay: Off-chip mobility shift kinase assay, TRKC; assay type: biochemical; settings: Srctide 1000 nM, ATP 50 μM, Mg 5 mM
KDR = KDR (Homo sapiens, UniProt P35968); assay: Off-chip mobility shift kinase assay, KDR; assay type: biochemical; settings: CSKtide 1000 nM, ATP 75 μM, Mg 5 mM
RET(G691S) = RET(G691S) (Homo sapiens, UniProt P07949, G691S); assay: Off-chip mobility shift kinase assay, RET [G691S]; assay type: biochemical; settings: CSKtide 1000 nM, ATP 10 μM, Mg 5 mM
TRKB = TRKB (Homo sapiens, UniProt Q16620); assay: Off-chip mobility shift kinase assay, TRKB; assay type: biochemical; settings: Srctide 1000 nM, ATP 75 μM, Mg 5 mM
RET(M918T) = RET(M918T) (Homo sapiens, UniProt P07949, M918T); assay: Off-chip mobility shift kinase assay, RET [M918T]; assay type: biochemical; settings: CSKtide 1000 nM, ATP 5 μM, Mg 5 mM
RET = RET (Homo sapiens, UniProt P07949); assay: Off-chip mobility shift kinase assay, RET; assay type: biochemical; settings: CSKtide 1000 nM, ATP 10 μM, Mg 5 mM
FLT4 = FLT4 (Homo sapiens, UniProt P35916); assay: Off-chip mobility shift kinase assay, FLT4; assay type: biochemical; settings: CSKtide 1000 nM, ATP 75 μM, Mg 5 mM
TRKA = TRKA (Homo sapiens, UniProt P04629); assay: Off-chip mobility shift kinase assay, TRKA; assay type: biochemical; settings: CSKtide 1000 nM, ATP 75 μM, Mg 5 mM
RET(S 891A) = RET(S 891A) (Homo sapiens, UniProt P07949, S891A); assay: Off-chip mobility shift kinase assay, RET [S891A]; assay type: biochemical; settings: CSKtide 1000 nM, ATP 10 μM, Mg 5 mM
FAK = FAK (Homo sapiens, UniProt Q05397); assay: Off-chip mobility shift kinase assay, FAK; assay type: biochemical; settings: Blk/Lyntide 1000 nM, ATP 25 μM, Mg 5 mM
EGFR(T790M) = EGFR(T790M) (Homo sapiens, UniProt P00533, T790M); assay: Off-chip mobility shift kinase assay, EGFR [T790M]; assay type: biochemical; settings: Srctide 1000 nM, ATP 1 μM, Mg + Mn 5 + 1 mM
FLT3 = molecular target: T2, FLT3 (Homo sapiens, UniProt P36888); assay: Off-chip mobility shift kinase assay, FLT3; assay type: biochemical; settings: Srctide 1000 nM, ATP 100 μM, Mg 5 mM
T2 sequence (P36888 27-993): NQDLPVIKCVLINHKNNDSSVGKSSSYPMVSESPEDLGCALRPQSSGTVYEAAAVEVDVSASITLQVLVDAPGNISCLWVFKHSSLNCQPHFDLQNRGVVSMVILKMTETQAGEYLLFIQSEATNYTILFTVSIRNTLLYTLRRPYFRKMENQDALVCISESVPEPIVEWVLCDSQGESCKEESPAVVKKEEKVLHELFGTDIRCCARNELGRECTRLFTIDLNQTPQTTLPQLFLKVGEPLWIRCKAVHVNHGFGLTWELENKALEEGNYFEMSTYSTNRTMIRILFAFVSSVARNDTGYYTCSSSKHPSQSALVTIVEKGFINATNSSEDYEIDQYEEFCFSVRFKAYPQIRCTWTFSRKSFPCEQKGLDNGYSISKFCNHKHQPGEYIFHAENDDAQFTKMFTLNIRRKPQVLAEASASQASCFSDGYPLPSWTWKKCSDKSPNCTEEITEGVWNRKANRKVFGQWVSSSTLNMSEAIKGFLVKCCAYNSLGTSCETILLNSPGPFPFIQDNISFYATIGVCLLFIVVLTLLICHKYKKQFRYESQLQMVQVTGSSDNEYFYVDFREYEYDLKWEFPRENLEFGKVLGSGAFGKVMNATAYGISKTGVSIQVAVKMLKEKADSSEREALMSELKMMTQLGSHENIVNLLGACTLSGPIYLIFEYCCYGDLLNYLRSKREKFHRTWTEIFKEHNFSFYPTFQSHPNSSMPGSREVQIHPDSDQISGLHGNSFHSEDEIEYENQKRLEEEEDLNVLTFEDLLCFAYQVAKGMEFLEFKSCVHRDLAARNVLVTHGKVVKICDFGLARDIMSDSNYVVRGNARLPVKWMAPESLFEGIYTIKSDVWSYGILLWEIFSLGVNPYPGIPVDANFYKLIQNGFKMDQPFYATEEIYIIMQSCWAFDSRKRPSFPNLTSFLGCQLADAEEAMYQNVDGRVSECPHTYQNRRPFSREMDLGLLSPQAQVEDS

NGF = molecular target: T3, NGF (Homo sapiens, UniProt P01138); settings: osteoarthritis pain study, cited from earlier work
T3 construct: host or cells: patients (endogenous NGF)

For `CC(C)N(C)C(=O)[C@H]1CC[C@@H](n2/c(=N/C(=O)c3ccc(F)cc3)[nH]c3cnc(CN4CCCCC4)cc32)CC1` [Example 46], the IC50 [1] was < 50 nM.
For `CC(=O)[C@H]1CC[C@@H](n2/c(=N/C(=O)c3cccc(F)c3)[nH]c3ccc(CO)cc32)CC1` [Example 70], the IC50 [1] was 1000 to 5000 nM.
In the case of `CCOC(=O)[C@H]1CC[C@@H](n2/c(=N/C(=O)c3cccc(F)c3)[nH]c3cnc(OCCN4CCC(C(C)(C)O)CC4)cc32)CC1` [Example 79], the IC50 [1] is reported as 1000 to 5000 nM.
`CNC(=O)[C@]1(O)CC[C@@H](n2/c(=N/C(=O)c3ccc(F)cc3)[nH]c3cnc(OCCN4CCCCC4)cc32)CC1` [Example 82] gave an IC50 [1] of 1000 to 5000 nM.
`CNC(=O)[C@]1(O)CC[C@H](n2/c(=N/C(=O)c3ccc(F)cc3)[nH]c3cnc(OCCN4CCCCC4)cc32)CC1` [Example 83] gave an IC50 [1] of 100 to 1000 nM.
For `COC(=O)[C@H]1CC[C@@H](n2/c(=N/C(=O)c3ccc(F)cc3)[nH]c3cnc(CN4CCOCC4)cc32)CC1` [Example 85], the IC50 [1] was < 50 nM.
For `CC(C)NC(=O)[C@H]1CC[C@@H](n2/c(=N/Cc3ccc4ccsc4c3)[nH]c3cnc(OCCN4CCCCC4)cc32)CC1` [Example 87], the IC50 [1] was 50 to 100 nM.
`O=C(/N=c1\[nH]c2cnc(OCCN3CCCCC3)cc2n1[C@H]1CC[C@@H](C(=O)N2CCNCC2)CC1)c1ccc(F)cc1` [Example 124] showed an IC50 [1] of 100 to 1000 nM.
With `CC(C)NC(=O)[C@H]1CC[C@@H](n2/c(=N/C(=O)c3cccc(F)c3)[nH]c3cnc(OCCN4CCC(C(C)(C)O)CC4)cc32)CC1` [Example 130] the IC50 [1] was < 50 nM.
In the case of `C=CCNS(=O)(=O)c1cccc(C(=O)/N=c2\[nH]c3cnc(OCCN4CCC(C(C)(C)O)CC4)cc3n2[C@H]2CC[C@H](C(=O)NC(C)C)CC2)c1` [Example 131], the IC50 [1] is reported as 100 to 1000 nM.
In the case of `CC(C)NC(=O)[C@H]1CC[C@@H](n2/c(=N/C(=O)c3ccc(F)c(C#N)c3)[nH]c3ccc(CN4CCC(C(C)(C)O)CC4)cc32)CC1` [Example 146], the IC50 [1] is reported as < 50 nM.
With `CC(C)NC(=O)[C@H]1CC[C@@H](N2c3cc(O)ccc3NC2NC(=O)c2ccc(F)cc2)CC1` (stereo partly drawn) [Example 154] the IC50 [1] was < 50 nM.
With `CC(C)NC(=O)[C@H]1CC[C@@H](n2/c(=N/C(=O)c3ccc(F)cc3)[nH]c3ccc(CN4CCN(S(=O)(=O)O)CC4)cc32)CC1` [Example 172] the IC50 [1] was < 50 nM.
With `CC(C)NC(=O)[C@H]1CC[C@@H](n2/c(=N/C(=O)c3ccc(F)cc3)[nH]c3ccc(CN4CCN(C(N)=O)CC4)cc32)CC1` [Example 177] the IC50 [1] was < 50 nM.
With `CC(C)C(=O)N[C@H]1CC[C@@H](n2/c(=N/C(=O)c3ccc(F)cc3)[nH]c3cnc(CN4CCC(C(C)(C)O)CC4)cc32)CC1` [Example 227] the IC50 [1] was 50 to 100 nM.
For `CC(=O)N[C@H]1CC[C@H](n2/c(=N/C(=O)c3cccc(F)c3)[nH]c3ccc(CN4CCC(C(C)(C)O)CC4)cc32)CC1` [Example 229], the IC50 [1] was 50 to 100 nM.
In the case of `CCCNS(=O)(=O)c1cccc(C(=O)/N=c2\[nH]c3cnc(OCCN4CCCCC4)cc3n2C2CCC(C(N)=O)CC2)c1` (stereo not drawn) [Example 244], the IC50 ([1]; 2 nM enzyme, ATP 40 μM (Km apparent), 90 minutes, mean of three replicates) is reported as 50 to 100 nM.
With `CC(C)NC(=O)[C@H]1CC[C@@H](n2/c(=N/C(=O)c3ccc(F)cc3)[nH]c3ccc(CN4CCC(C(C)(C)O)CC4)cc32)CC1` [I-a] the IC50 (FLT1) was > 1000 nM, the IC50 (RET(Y791F)) was 1 to 100 nM and the IC50 (TRKC) was 1 to 100 nM. The IC50 (KDR) was > 1000 nM, the IC50 (RET(G691S)) was 1 to 100 nM and the IC50 (TRKB) was 1 to 100 nM. The IC50 (RET(M918T)) was 1 to 100 nM, the IC50 (RET) was 1 to 100 nM and the IC50 (FLT4) was > 1000 nM. The IC50 (TRKA) was < 1 nM, the IC50 (RET(S 891A)) was 1 to 100 nM and the IC50 (FAK) was 1 to 100 nM. For the same molecule, the IC50 (EGFR(T790M)) was > 1000 nM.
With `CC(C)NC(=O)[C@H]1CC[C@@H](n2/c(=N/C(=O)c3cc(F)cc(F)c3)[nH]c3ccc(CN4CCC(C(C)(C)O)CC4)cc32)CC1` [I-b] the IC50 (FLT1) was > 1000 nM, the IC50 (RET(Y791F)) was > 1000 nM and the IC50 (TRKC) was 1 to 100 nM. The IC50 (KDR) was > 1000 nM, the IC50 (RET(G691S)) was > 1000 nM and the IC50 (FLT3) was 1 to 100 nM. The IC50 (TRKB) was 1 to 100 nM, the IC50 (RET(M918T)) was > 1000 nM and the IC50 (RET) was > 1000 nM. For the same molecule, the IC50 (FLT4) was > 1000 nM, the IC50 (TRKA) was 1 to 100 nM and the IC50 (RET(S 891A)) was 101 to 500 nM. For the same molecule, the IC50 (FAK) was 101 to 500 nM and the IC50 (EGFR(T790M)) was > 1000 nM.
For tanezumab, the “adverse event: headache” value (NGF; among patients) is given as 9%, the “adverse event: paresthesia” value (NGF; among patients) is given as 7% and the “adverse event: upper respiratory infection” value (NGF; among patients) is given as 7%. For the same molecule, the “rate of adverse events” value (NGF; 55% in placebo group) was 68%.
